Ki data for 20 compounds are collected here from ChEMBL document CHEMBL3632495, “Discovery of 1,1'-Biphenyl-4-sulfonamides as a New Class of Potent and Selective Carbonic Anhydrase XIV Inhibitors” (J Med Chem, 2015).

In general, Ki refers to the dissociation constant of the complex between target and ligand, obtained from inhibition or displacement.

Among the targets are Carbonic anhydrase 1 (Homo sapiens, UniProt P00915); Carbonic anhydrase 2 (Homo sapiens, UniProt P00918); Carbonic anhydrase 12 (Homo sapiens, UniProt O43570); Carbonic anhydrase 9 (Homo sapiens, UniProt Q16790).

Chain of Carbonic anhydrase 1 (P00915 whole entry): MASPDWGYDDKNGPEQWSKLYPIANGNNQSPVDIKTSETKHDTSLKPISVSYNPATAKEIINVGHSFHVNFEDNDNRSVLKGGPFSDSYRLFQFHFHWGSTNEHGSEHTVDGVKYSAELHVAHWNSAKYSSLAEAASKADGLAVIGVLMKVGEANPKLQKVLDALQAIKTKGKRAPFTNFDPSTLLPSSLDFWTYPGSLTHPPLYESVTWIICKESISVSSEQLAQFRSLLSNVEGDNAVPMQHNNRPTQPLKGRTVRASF
Chain of Carbonic anhydrase 12 (O43570 whole entry): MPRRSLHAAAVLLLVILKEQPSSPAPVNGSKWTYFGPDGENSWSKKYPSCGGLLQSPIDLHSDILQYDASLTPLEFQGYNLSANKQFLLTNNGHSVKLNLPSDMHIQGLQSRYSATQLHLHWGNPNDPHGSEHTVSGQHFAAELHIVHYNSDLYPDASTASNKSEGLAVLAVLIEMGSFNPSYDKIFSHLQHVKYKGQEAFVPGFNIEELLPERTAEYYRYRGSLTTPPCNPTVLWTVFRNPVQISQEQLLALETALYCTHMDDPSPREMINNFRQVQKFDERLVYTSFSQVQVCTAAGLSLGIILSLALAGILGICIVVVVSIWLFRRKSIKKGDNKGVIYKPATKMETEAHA
Description for Carbonic anhydrase 12: Inhibition of human carbonic anhydrase-12 assessed as CO2 hydration activity by stopped-flow method
Description for Carbonic anhydrase 2: Inhibition of human carbonic anhydrase-2 assessed as CO2 hydration activity by stopped-flow method
Description for Carbonic anhydrase 9: Inhibition of human carbonic anhydrase-9 assessed as CO2 hydration activity by stopped-flow method

With `Nc1ccc(-c2ccc(S(N)(=O)=O)cc2)cc1`, the figures for the Ki on Carbonic anhydrase 1, on Carbonic anhydrase 2 and on Carbonic anhydrase 12 were 78.5 nM, 9.1 nM and 7.7 nM, respectively.

Consider `CC(C)(C)OC(=O)c1ccc(-c2ccc(S(N)(=O)=O)cc2)cc1`, for which the Ki is 78.8 nM on Carbonic anhydrase 1, 42 nM on Carbonic anhydrase 2 and 44.9 nM on Carbonic anhydrase 12.

Take `NS(=O)(=O)c1ccc(-c2ccc(C(=O)c3ccccc3)cc2)cc1`: the Ki on Carbonic anhydrase 1 stood at 1630 nM; on Carbonic anhydrase 2, 4.3 nM; at Carbonic anhydrase 12, 7.4 nM.

Turning to `NS(=O)(=O)c1ccc(-c2ccc(C(=O)O)cc2)cc1`, the Ki at Carbonic anhydrase 9 stood at 3.6 nM; at Carbonic anhydrase 1 it was 340 nM; at Carbonic anhydrase 2, 6.2 nM; at Carbonic anhydrase 12, 52.3 nM.

For the compound `NS(=O)(=O)c1ccc(-c2ccc(Cc3ccccc3)cc2)cc1`, the Ki on Carbonic anhydrase 9 came to 519 nM; at Carbonic anhydrase 1, 75.3 nM; on Carbonic anhydrase 2, 454 nM; on Carbonic anhydrase 12, 77.2 nM.

For `NS(=O)(=O)c1ccc(-c2ccc(C(=O)NCCO)cc2)cc1`, the values for the Ki on Carbonic anhydrase 1, on Carbonic anhydrase 2 and on Carbonic anhydrase 12 were 46.7 nM, 11.5 nM and 26.2 nM, respectively.

Regarding `Nc1ccc(Cc2ccc(-c3ccc(S(N)(=O)=O)cc3)cc2)cc1`, the Ki at Carbonic anhydrase 9 amounted to 6 nM; on Carbonic anhydrase 1, 589 nM; on Carbonic anhydrase 2, 5.2 nM; on Carbonic anhydrase 12, 8.1 nM.

Consider `COC(=O)c1ccc(-c2ccc(S(N)(=O)=O)cc2)cc1`, for which the Ki at Carbonic anhydrase 9 is 9.3 nM; at Carbonic anhydrase 1, 77 nM; on Carbonic anhydrase 2 it was 9 nM; on Carbonic anhydrase 12, 35.2 nM.

Turning to `NS(=O)(=O)c1ccc(-c2ccc(Cc3ccc(C(=O)O)cc3)cc2)cc1`, the Ki came out at 31.4 nM on Carbonic anhydrase 9, 236 nM at Carbonic anhydrase 1 and 6.9 nM on Carbonic anhydrase 2.

Take `NS(=O)(=O)c1ccc(-c2ccc(C(O)c3ccc(C(=O)O)cc3)cc2)cc1` (stereo unspecified): the Ki on Carbonic anhydrase 9 was found to be 450 nM; on Carbonic anhydrase 1 it was 72.5 nM; on Carbonic anhydrase 2, 814 nM; at Carbonic anhydrase 12 it was 93.9 nM.

For the compound `COC(=O)c1ccc(C(=O)c2ccc(-c3ccc(S(N)(=O)=O)cc3)cc2)cc1`, the Ki stood at 42.3 nM on Carbonic anhydrase 9, 73.8 nM at Carbonic anhydrase 1, 7.8 nM at Carbonic anhydrase 2 and 7.3 nM at Carbonic anhydrase 12.

With `NS(=O)(=O)c1ccc(-c2ccc(C(O)c3ccc([N+](=O)[O-])cc3)cc2)cc1` (stereo unspecified), the Ki came to 678 nM on Carbonic anhydrase 9 and 5.9 nM on Carbonic anhydrase 2.

Turning to `NC(=O)c1ccc(-c2ccc(S(N)(=O)=O)cc2)cc1`, the Ki was found to be 823 nM at Carbonic anhydrase 9, 67.5 nM at Carbonic anhydrase 1, 5.3 nM on Carbonic anhydrase 2 and 8.3 nM on Carbonic anhydrase 12.

Turning to `NS(=O)(=O)c1ccc(-c2ccc([N+](=O)[O-])cc2)cc1`, the Ki is 9.6 nM on Carbonic anhydrase 9, 62.2 nM on Carbonic anhydrase 1, 11.6 nM on Carbonic anhydrase 2 and 7.4 nM on Carbonic anhydrase 12.

In the case of `NS(=O)(=O)c1ccc(-c2ccc(C(=O)c3ccc(C(=O)O)cc3)cc2)cc1`, the Ki at Carbonic anhydrase 9 was found to be 8.5 nM; on Carbonic anhydrase 1, 263 nM; on Carbonic anhydrase 2 it was 4.8 nM; on Carbonic anhydrase 12 it was 45.5 nM.

In the case of `NS(=O)(=O)c1ccc(-c2ccc(C(=O)c3ccc([N+](=O)[O-])cc3)cc2)cc1`, the Ki came out at 80.1 nM at Carbonic anhydrase 1, 63.3 nM at Carbonic anhydrase 2 and 70.6 nM at Carbonic anhydrase 12.

`COC(=O)c1ccc(Cc2ccc(-c3ccc(S(N)(=O)=O)cc3)cc2)cc1`: the Ki worked out at 76.7 nM on Carbonic anhydrase 9, 122 nM at Carbonic anhydrase 1, 50.6 nM at Carbonic anhydrase 2 and 237 nM on Carbonic anhydrase 12.

`COC(=O)c1ccc(C(O)c2ccc(-c3ccc(S(N)(=O)=O)cc3)cc2)cc1` (stereo unspecified): the Ki on Carbonic anhydrase 1 turned out to be 6.3 nM; at Carbonic anhydrase 2, 6.6 nM; on Carbonic anhydrase 12, 6.7 nM.

For `NS(=O)(=O)c1ccc(-c2ccc(C(O)c3ccccc3)cc2)cc1` (stereo unspecified), the Ki on Carbonic anhydrase 9 amounted to 8.9 nM; at Carbonic anhydrase 1, 52.7 nM; on Carbonic anhydrase 2, 4.9 nM; at Carbonic anhydrase 12, 81.1 nM.

Regarding `NS(=O)(=O)c1ccc(-c2ccc(Cc3ccc([N+](=O)[O-])cc3)cc2)cc1`, the Ki turned out to be 705 nM at Carbonic anhydrase 9, 70.5 nM at Carbonic anhydrase 1, 39.7 nM at Carbonic anhydrase 2 and 9.3 nM on Carbonic anhydrase 12.
